Assay: Inhibition of TSZ-induced necroptosis in human HT-29 cells by CellTiter-Glo luminescent cell viability assay

Structure (SMILES) | EC50
O=C(c1cccc(F)n1)N1CCC(C(=O)N2N=CCC2c2cc(F)cc(F)c2)CC1 (configuration not stated) | 100 nM
Cc1ccc(C2CC=NN2C(=O)C2CCN(C(=O)c3cccc(F)n3)CC2)cc1F (configuration not stated) | 19.9 nM
